Values joined by “and” are separate entries in the source; they are usually repeats but may differ in a detail not shown here. Equal entries are not always repeated.
Compound | melting point
C[C@@H]1C[C@H]1C (relative stereo) [trans-1,2-dimethylcyclopropane] | -150 °C
NC(CO)Cc1ccccc1 (single isomer, unassigned; (-)) [(-)-2-amino-3-phenyl-1-propanol] | 92 °C
NC(CCC(=O)O)C(=O)O (stereo in doubt) [D-Glutamic Acid] | 201 °C
C(#Cc1ccccc1)c1ccccc1 [1,1'-Ethyne-1,2-diyldibenzene] | 60 °C
c1ccc(-c2ccc(-c3ccccc3)cc2)cc1 [1,1':4',1''-Terphenyl] | 213 °C
ClCC(Cl)(Cl)Cl [1,1,1,2-Tetrachloroethane] | -70 °C
ClCC(Cl)(Cl)Cl [1,1,1,2-tetrachloroethane] | -70 °C
OC(C(F)(F)F)C(F)(F)F [1,1,1,3,3,3-hexafluoro-2-propanol] | -3 °C
ClC(Cl)C(Cl)Cl [1,1,2,2-Tetrachloroethane] | -43 °C
BrC(Br)C(Br)Br [1,1,2,2-tetrabromoethane] | 0 °C
O=C(O)C1(C(=O)O)CC1 [1,1-cyclopropanedicarboxylic acid] | 132 °C
c1ccc2c(c1)CCCC2 [1,2,3,4-Tetrahydronaphthalene] | -31 °C
c1ccc2c(c1)CCCC2 [1,2,3,4-tetrahydronaphthalene(tetralin)] | -35 °C
Clc1cc(Cl)c(Cl)c(Cl)c1 [1,2,3,5-Tetrachlorobenzene] | 51.5 °C
ClCC(Cl)CCl [1,2,3-trichloropropane] | -14 °C
Clc1cc(Cl)c(Cl)cc1Cl [1,2,4,5-tetrachlorobenzene] | 139 °C (2×) and 140 °C
Brc1ccc(Br)c(Br)c1 [1,2,4-Tribromobenzene] | 44 °C

Compound | melting point
C[C@@H](Cl)CCl [1,2-Dichloro-Propane] | -100 °C
c1ccc(CCc2ccccc2)cc1 [1,2-Diphenylethane] | 51.5 °C
OC[C@@H](O)[C@H]1O[C@@H]2O[C@H](C(Cl)(Cl)Cl)O[C@@H]2[C@H]1O [1,2-O-[(1R)-2,2,2-Trichloroethylidene]-alpha-D-glucofuranose] | 187 °C
Sc1ccccc1S [1,2-benzenedithiol] | 23 °C
CCC(Br)CBr (configuration not stated) [1,2-dibromobutane] | -65 °C
O=[N+]([O-])c1ccc(Cl)c(Cl)c1 [1,2-dichloro-4-nitrobenzene] | 41 °C
CC(Cc1ccccc1)c1ccccc1 (configuration not stated) [1,2-diphenylpropane] | 0 °C
C1=CC=CC=CC=C1 [1,3,5,7-cyclooctatetraene] | -27 °C
O=C(c1ccccc1)c1cc(C(=O)c2ccccc2)cc(C(=O)c2ccccc2)c1 [1,3,5-tribenzoylbenzene] | 118 °C
Brc1cc(Br)cc(Br)c1 [1,3,5-tribromobenzene] [listing 1 of 2 here] | 124 °C (2×) and 122 °C
Brc1cc(Br)cc(Br)c1 [1,3,5-tribromobenzene] [listing 2 of 2 here] | 123 °C
Clc1cc(Cl)cc(Cl)c1 [1,3,5-trichlorobenzene] | 65 °C (2×) and 64 °C
Cc1nn(C)c(C)c1C=O [1,3,5-trimethyl-1h-pyrazole-4-carboxaldehyde] | 82 °C
BrCCCBr [1,3-Dibromopropane] | -34 °C
Brc1cccc(Br)c1 [1,3-dibromobenzene] | -7 °C
BrCCCBr [1,3-dibromopropane] | -34 °C
Clc1cc(Cl)cc(I)c1 [1,3-dichloro-5-iodobenzene] | 57 °C

Continued, values first:

melting point | Compound
-88 °C | C[C@H]1CCCC[C@@H]1C (relative stereo) [trans-1,2-dimethylcyclohexane]
-118 °C | C[C@H]1CCC[C@@H]1C (relative stereo) [trans-1,2-dimethylcyclopentane]
-123 °C | CCC[C@H]1CCC[C@@H]1C (relative stereo) [trans-1-methyl-2-propylcyclopentane]
155 °C | CC1(C)C[C@@H](C(=O)O)[C@@H]1N (relative stereo) [trans-2-Amino-3,3-dimethylcyclobutane-1-carboxylic acid]
-21 °C | C[C@H]1CCCC[C@@H]1O (relative stereo) [trans-2-methylcyclohexanol]
144 °C | C#CC1(O)CC[C@H]2[C@@H]3CCc4cc(O)ccc4[C@H]3CC[C@@]21C (stereo in doubt) [(17beta)-17-Ethynylestra-1(10),2,4-triene-3,17-diol]
292 °C | CC(N)C(=O)O (stereo in doubt) [D-Alanine]
94 °C | c1ccc(C(c2ccccc2)c2ccccc2)cc1 [1,1',1''-Methanetriyltribenzene]
217 °C | Oc1ccc2ccccc2c1-c1c(O)ccc2ccccc12 [1,1'-bi(2-naphthol)]
294 °C | OB(O)c1cc(-c2ccccc2)cc(-c2ccccc2)c1 [1,1':3',1''-terphenyl-5'-boronic acid]
0 °C | BrC(Br)C(Br)Br [1,1,2,2-Tetrabromoethane]
-33 °C | CC1(C)CCCCC1 [1,1-dimethylcyclohexane]
8 °C | C=C(c1ccccc1)c1ccccc1 [1,1-diphenylethene]
14 °C | CCC(c1ccccc1)c1ccccc1 [1,1-diphenylpropane]
14 °C | c1ccc2c(c1)CCCN2 [1,2,3,4-tetrahydroquinoline]
79 °C | Cc1cc(C)c(C)cc1C [1,2,4,5-tetramethylbenzene]
281 °C | O=C1c2ccccc2C(=O)c2c1ccc(O)c2O [1,2-Dihydroxy-9,10-anthraquinone]

melting point | Compound
146 °C | O=C(CCC(=O)c1ccccc1)c1ccccc1 [1,2-dibenzoylethane]
35 °C | Clc1cccc(I)c1Cl [1,2-dichloro-3-iodobenzene]
-35 °C | ClCCCl [1,2-dichloroethane]
51.5 °C and 52 °C | c1ccc(CCc2ccccc2)cc1 [1,2-diphenylethane]
219 °C | C(=C/P(=O)(O)O)P(=O)(O)O [1,2-ethylenediphosphonic acid]
-60 °C | CC(O)CO (configuration not stated) [1,2-propanediol] [listing 1 of 2 here]
-60 °C | CC(O)CO (configuration not stated) [1,2-propanediol] [listing 2 of 2 here]
-10 °C | C=C1N(C)c2ccccc2C1(C)C [1,3,3-trimethyl-2-methyleneindoline]
24 °C | C=CCn1c(=O)n(CC=C)c(=O)n(CC=C)c1=O [1,3,5-Triallyl-1,3,5-triazinane-2,4,6-trione]
72 °C | O=[N+]([O-])c1c(Cl)cc(Cl)cc1Cl [1,3,5-Trichloro-2-nitrobenzene]
375 °C | O=C(O)c1cc(C(=O)O)cc(C(=O)O)c1 [1,3,5-benzenetricarboxylic acid]
135 °C | CC1(C)C(=O)N(Cl)C(=O)N1Cl [1,3-Dichloro-5,5-dimethylimidazolidine-2,4-dione]
238 °C | O=C(Nc1ccccc1)Nc1ccccc1 [1,3-Diphenylurea]
118 °C | O=C(Oc1cccc(OC(=O)c2ccccc2)c1)c1ccccc1 [1,3-dibenzoyloxybenzene]
-63 °C | CC(C)c1cccc(C(C)C)c1 [1,3-diisopropylbenzene]
-16 °C | CCc1c(C)cccc1C [1,3-dimethyl-2-ethylbenzene]
